What was measured:
[1] = Fluorescence of free probe prior to binding to a protein tag; type: physicochemical
[2] = Viscosity responsiveness: fluorescence emission spectra of probes in glycerol and methanol; type: physicochemical; details: for Emission wavelength: excited at maximum excitation wavelength of each probe; for Fluorescence ratio in glycerol to methanol: probe 1×10^−5 M
In short: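 Each probe, from a 1×10^−2 M DMSO stock, was diluted to a final 1×10^−5 M in glycerol and in methanol. Fluorescence emission spectra were then recorded under identical conditions at each probe's maximum excitation wavelength.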

SNAP protein tags = target: T1, SNAP protein tags (Homo sapiens, UniProt P16455, A127T/A154D/C150Q/C62A/E30R/G131K/G132T/G153L/K125A/K32I/L33F/M134L/N157G/Q115S/Q116H/R128A/R135S/S151G/S152D/S159E); test: Fluorescence activation of probe after incubation with corresponding protein tag (SNAP); type: biochemical; details: probe 5 μM, protein tag 10 μM, 37° C., 1 hr
T1 sequence (P16455 1-182 E30R/K32I/L33F/C62A/Q115S/Q116H/K125A/A127T/R128A/G131K/G132T/M134L/R135S/C150Q/S151G/S152D/G153L/A154D/N157G/S159E): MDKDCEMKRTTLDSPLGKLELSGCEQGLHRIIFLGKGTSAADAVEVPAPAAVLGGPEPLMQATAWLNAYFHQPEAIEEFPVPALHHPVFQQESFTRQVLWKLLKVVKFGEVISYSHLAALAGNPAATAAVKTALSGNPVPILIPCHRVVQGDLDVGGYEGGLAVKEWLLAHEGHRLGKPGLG
In short: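 Probe (5 μM final) mixed with CLIP or SNAP protein tag (10 μM final) and incubated 1 hr at 37° C. Fluorescence intensity change measured by fluorescence spectrophotometer, with quantum yield of tag-bound probe determined.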

SMILES	Quantum yield of free probe [1]	Emission wavelength [2] [nm]	Fluorescence ratio in glycerol to methanol [2]	Fluorescence activation multiple (SNAP protein tags)	Quantum yield of probe bound to protein tag (SNAP protein tags)
CN(CCOC(=O)NCc1ccc(COc2nc(N)nc3[nH]cnc23)cc1)c1ccc2c(c1)sc1cc(C=C(C#N)C#N)sc12 [probe 64]	<0.001	620	632	519	0.48
CN(CCOC(=O)NCc1ccc(COc2nccc(N)n2)cc1)c1ccc2c(c1)sc1cc(/C=C(/C#N)c3nc4ccccc4o3)sc12 [probe 65]	<0.001	650	391	798	0.66
COCCNC(=O)/C(C#N)=C/c1ccc(-c2ccc(N(C)CCOC(=O)NCc3ccc(COc4nc(N)nc5[nH]cnc45)cc3)cc2)s1 [probe 67]	<0.001	620	276	576	0.36
COCCNC(=O)/C(C#N)=C/c1ccc(-c2ccc(N(C)CCOC(=O)NCc3ccc(COc4cc(Cl)nc(N)n4)cc3)cc2)s1 [probe 68]	<0.001	620	381	681	0.36
CN(CCOC(=O)NCc1ccc(COc2nc(N)nc3[nH]cnc23)cc1)c1cc2cc3sc(/C=C(\C#N)C(=O)OC(C)(C)C)cc3cc2s1 [probe 70]	0.0026	640	131	258	0.68
COCCNC(=O)/C(C#N)=C/c1cc2cc3sc(N(C)CCOC(=O)NCc4ccc(COc5nc(N)nc6[nH]cnc56)cc4)cc3cc2s1 [probe 71]	0.0028	640	121	239	0.67
CN(CCOC(=O)NCc1ccc(COc2nc(N)nc3[nH]cnc23)cc1)c1cc2c(s1)-c1sc(C=C(C#N)C#N)cc1[Si]2(C)C [probe 73]	0.0031	680	325	248	0.76
CN(CCOC(=O)NCc1ccc(COc2nc(N)nc3[nH]cnc23)cc1)c1cc2c(s1)-c1sc(/C=C(/C#N)C(=O)OC(C)(C)C)cc1[Si]2(C)C [probe 74]	0.0025	680	297	311	0.78
CN(CCOC(=O)NCc1ccc(COc2nc(N)nc3[nH]cnc23)cc1)c1cc2c(s1)-c1sc(/C=C(/C#N)c3nc4ccccc4o3)cc1[Si]2(C)C [probe 75]	0.0021	700	105	211	0.44
COCCNC(=O)/C(C#N)=C/c1ccc(-c2ccc(N(C)CCOC(=O)NCc3ccc(COc4nc(N)nc5[nH]cnc45)cc3)s2)s1 [probe 78]	<0.001	672	189	369	0.28
CN(CCOC(=O)NCc1ccc(COc2nc(N)nc3[nH]cnc23)cc1)c1ccc(-c2ccc(/C=C(\C#N)c3nc4ccccc4s3)s2)s1 [probe 79]	<0.001	681	298	419	0.31
CC(C)(C)OC(=O)/C(C#N)=C/c1ccc2c(c1)SCCN2CCOC(=O)NCc1ccc(COc2nc(N)nc3[nH]cnc23)cc1 [probe 83]	<0.001	515	103	209	0.18
N#C/C(=C\c1ccc2c(c1)SCCN2CCOC(=O)NCc1ccc(COc2nc(N)nc3[nH]cnc23)cc1)c1nc2ccccc2o1 [probe 85]	<0.001	535	187	391	0.15
N#C/C(=C\c1ccc2c(c1)SCCN2CCOC(=O)NCc1ccc(COc2nc(N)nc3[nH]cnc23)cc1)c1nc2ccccc2s1 [probe 86]	<0.001	550	214	413	0.17
CC1=CC(C)(C)N(CCOC(=O)NCc2ccc(COc3nc(N)nc4[nH]cnc34)cc2)c2ccc(/C=C(\C#N)C(=O)OC(C)(C)C)cc21 [probe 87]	<0.001	575	209	515	0.45
CC1=CC(C)(C)N(CCOC(=O)NCc2ccc(COc3nc(N)nc4[nH]cnc34)cc2)c2ccc(/C=C(\C#N)c3nc4ccccc4s3)cc21 [probe 89]	<0.001	612	129	421	0.32
CN(CCOC(=O)NCc1ccc(COc2nc(N)nc3[nH]cnc23)cc1)c1cc2c(s1)-c1sc(/C=C(/C#N)C(=O)O)cc1C2(C)C [probe 98]	<0.001	650	182	893	0.78
CN(CCOC(=O)NCc1ccc(COc2nc(N)nc3[nH]cnc23)cc1)c1ccc(/C=C(\C#N)C(=O)O)cc1 [probe 101]	<0.001	481	362	463	0.37
N#C/C(=C\c1ccc2c(c1)SCCN2CCOC(=O)NCc1ccc(COc2nc(N)nc3[nH]cnc23)cc1)C(=O)O [probe 103]	<0.001	515	321	651	0.27
CC1=CC(C)(C)N(CCOC(=O)NCc2ccc(COc3nc(N)nc4[nH]cnc34)cc2)c2ccc(/C=C(\C#N)C(=O)O)cc21 [probe 105]	<0.001	510	328	549	0.41
CN(CCOC(=O)NCc1ccc(COc2nc(N)nc3[nH]cnc23)cc1)c1cc2sc(/C=C(\C#N)C(=O)O)cc2s1 [probe 107]	<0.001	555	526	564	0.47

Reference: patent US11209437B2, “Fluorescent probe and preparation method and use thereof” (Fluorescence Diagnosis (shanghai) Biotech Company Ltd., priority 2016, dated 2021)
